Source: patent US20140080787A1, “Method for the Treatment of Neuropathies Associated with Charcot-Marie-Tooth 1A (CMT1A) Disease” (National Institutes of Health, US Dept of Health and Human …, priority 2012, published 2014)

Experiments:
PMP22 [1] = assay: PMP22 expression in S16 Schwann cells, quantitative rtPCR; assay type: cell-based; settings: for RQ (Relative Quantity) PMP22-P1 / RQ (Relative Quantity) PMP22-P2: normalized to beta-actin, untreated = 1.000; for PMP22 P1 relative level of expression / PMP22 P2 relative level of expression: 24 h, S16 Schwann cells, relative to untreated control, normalized to 18S rRNA, ± S.D.
Description: To determine if proteasome inhibitors affect endogenous PMP22 expression, quantitative rtPCR was utilized to measure the abundance of PMP22 mRNA transcript in the S16 Schwann cells, which were plated in 6 well plates and treated with each compound at the indicated concentrations. After 24 h., the cells were harvested to purify RNA, 1 μg of which was converted into cDNA. Quantitative rtPCR was performed in either SYBR green-based reactions or Taqman-based customized 384-well micro fluidic arrays using a ViiA7 system or StepOne Plus (Applied Biosystems). Abundance of gene expression was first normalized to beta-actin (ActB, NM_031144.2) or 18 S rRNA, which served as an endogenous loading control across samples, and then determined relative to the untreated sample for each gene using the comparative Ct method described by K. J. Livak and T. D. Schmittgen (Analysis of relative gene expression data using real-time quantitative PCR and the 2^ΔΔCT method. Methods, 2001, 25, 402-408).
S16 Schwann cells were treated with indicated proteasome inhibitors for 24 h. RNA was prepared and analyzed by quantitative rtPCR using promoter specific primers for PMP22 (labeled P1 and P2). Relative levels of expression are shown relative to untreated control cells. Values are normalized to 18S rRNA. Errors reflect the standard deviation (S.D.) of technical duplicates.
RQ=Relative Quantity, normalized to beta-actin

PMP22 [2] = assay: PMP22 expression in sciatic nerve of CMT1A rats, quantitative rtPCR; assay type: in vivo, rat; settings: vehicle = 1.00, ± SEM
Description: Abundance of gene expression could be determined relative to an untreated sample for each gene using the comparative Ct method as described in the procedure published by K. J. Livak and T. D. Schmittgen (Analysis of relative gene expression data using real-time quantitative PCR and the 2^ΔΔCT method. Methods, 2001, 25, 402-408).
Changes in the expression of peripheral and central nervous system gene makers (including myelin markers such as PMP22, P0, and Myelin Basic Protein) were followed after proteasome inhibitor administration, and a reduction of PMP22 expression was observed. Changes in PMP22 gene expression were correlated with measures of neurological function that are used to measure the CMT1A neuropathy. These measures of neurological function included measures of motor coordination, nerve conduction velocity, and histology of femoral motor and sensory nerves. Relevant measures of CMT1A function have been outlined by J. C. Noreel and co-authors (Behavioural profiling of a murine Charcot-Marie-Tooth disease type 1A model. Eur. J. Neurosci. 2001, 13, 1625-1634).
Bortezomib was administered subcutaneously (s.c.) at a dose equivalent to 0.1 mg substance/kg of body weight, using an injection concentration of 2.5 mg of substance/ml. RNA was purified from sciatic nerve at 7 d post-injection. […] Errors indicate the standard error of the mean (SEM).
Oprozomib (ONX-0912) was administered at the indicated doses by oral gavage and RNA was purified from sciatic nerve at 7 d. […] Errors indicate SEM. Vehicle was 10% EtOH, 10% Tween80, 80% 10 mM citrate buffer pH=3.5 (see; Zhou, H-J. et al., Design and Synthesis of an Orally Bioavailable and Selective Peptide Epoxyketone Proteasome Inhibitor (PR-047). J. Med. Chem., 2009, 52, 3028-3038).

human PMP22 gene = assay: Orthogonal reporter assays (firefly luciferase or β-lactamase coupled to the intronic regulatory element of the human PMP22 gene); assay type: cell-based; settings: targeted screening, firefly luciferase and β-lactamase reporters
Description: A cross-validating pair of orthogonal reporter assays, which employ either firefly luciferase or β-lactamase coupled to the intronic regulatory element of the human PMP22 gene, were used to measure CMT1A PMP22 overexpression as a means of identifying transcriptional inhibitors with therapeutic value toward CMT1A. […] A description of assays and methods used to identify compounds has been provided by S-W Jang and co-authors (Identification of drug modulators targeting gene-dosage disease. ACS Chem Biol., 2012, 7, 1205-1213).

PMP22 [3] = assay: Effect on PMP22 expression in mice after a single s.c. injection; assay type: in vivo; settings: 10 mg/kg, n = 4, vehicle printed 0.739 ± 0.07
Description: MLN9708. Anatomical areas of subcutaneous administration could include the right or left thigh, or abdomen. The same anatomical area can be used for repeated administration. However, injections are typically to be rotated between sites (see; Fledrich, R. M. et al., Murine therapeutic models for Charcot-Marie-Tooth (CMT) disease. British Medical Bulletin, 2012, 102, 89-113).

[4] = 0.1 mg/kg s.c., sciatic nerve, 7 d post-injection, n = 9
[5] = 10 mg/kg oral gavage, sciatic nerve at 7 d, n = 7
[6] = 30 mg/kg oral gavage, sciatic nerve at 7 d, n = 7

**Q.** What does the source list for CC(C)C[C@H](NC(=O)[C@H](Cc1ccccc1)NC(=O)c1cnccn1)B(O)O [Bortezomib, [(1R)-3-methyl-1-({(2S)-3-phenyl-2-[(pyrazin-2-ylcarbonyl)amino]propanoyl}amino)butyl]boronic acid]?
**A.** RQ (Relative Quantity) PMP22-P1 (PMP22 [1]; 10 nM): 0.517; RQ (Relative Quantity) PMP22-P2 (PMP22 [1]; 10 nM): 0.809; RQ (Relative Quantity) PMP22-P1 (PMP22 [1]; 100 nM): 0.032; RQ (Relative Quantity) PMP22-P2 (PMP22 [1]; 100 nM): 0.153; RQ (Relative Quantity) PMP22-P1 (PMP22 [1]; 1 μM): 0.041; RQ (Relative Quantity) PMP22-P2 (PMP22 [1]; 1 μM): 0.232; RQ (Relative Quantity) PMP22-P1 (PMP22 [1]; 10 μM): 0.077; RQ (Relative Quantity) PMP22-P2 (PMP22 [1]; 10 μM): 0.285; PMP22 P1 relative level (PMP22 [2]; [4]): 0.675 ± 0.17; PMP22 P2 relative level (PMP22 [2]; [4]): 0.4 ± 0.07; Total PMP22 relative level (PMP22 [2]; [4]): 0.3 ± 0.05; Effect on CMT1A PMP22 overexpression in reporter assays (human PMP22 gene): selectively reducing CMT1A expression

**Q.** Which results are given for CC(C)C[C@H](NC(=O)[C@H](CCc1ccccc1)NC(=O)CN1CCOCC1)C(=O)N[C@@H](Cc1ccccc1)C(=O)N[C@@H](CC(C)C)C(=O)[C@@]1(C)CO1 [Carfilzomib, (S)-4-nethyl-N-((S)-1-(((S)-4-methyl-1-((R)-2-methyloxiran-2-yl)-1-oxopentan-2-yl)amino)-1-oxo-3-phenylpropan-2-yl)-2-((S)-2-(2-morpholinoacetamido)-4-phenylbutanamido)pentanamide]?
**A.** PMP22 P1 relative level of expression (PMP22 [1]; 1 nM): 0.003 ± 0.0004; PMP22 P2 relative level of expression (PMP22 [1]; 1 nM): 0.012 ± 0.004; PMP22 P1 relative level of expression (PMP22 [1]; 2.5 nM): 0.006 ± 0.0005; PMP22 P2 relative level of expression (PMP22 [1]; 2.5 nM): 0.027 ± 0.0037; PMP22 P1 relative level of expression (PMP22 [1]; 5 nM): 0.006 ± 0.0019; PMP22 P2 relative level of expression (PMP22 [1]; 5 nM): 0.037 ± 0.00026; PMP22 P1 relative level of expression (PMP22 [1]; 10 nM): 0.014 ± 0.0007; PMP22 P2 relative level of expression (PMP22 [1]; 10 nM): 0.046 ± 0.0022; PMP22 P1 relative level of expression (PMP22 [1]; 100 nM): 0.009 ± 0.0055; PMP22 P2 relative level of expression (PMP22 [1]; 100 nM): 0.027 ± 0.017; PMP22 P1 relative level of expression (PMP22 [1]; 1 μM): 0.008 ± 0.0024; PMP22 P2 relative level of expression (PMP22 [1]; 1 μM): 0.036 ± 0.0049

**Q.** CC(C)C[C@H](NC(=O)CNC(=O)c1cc(Cl)ccc1Cl)B(O)O [MLN2238, (R)-1-(2-(2,5-dichlorobenzamido)acetamido)-3-methylbutylboronic acid] was tested. Which “PMP22 P1 relative level of expression” value (PMP22 [1]; 25 nM) did it give?
**A.** 1.177 ± 0.42

**Q.** What about the “PMP22 P2 relative level of expression” value (PMP22 [1]; 25 nM) of the same compound?
**A.** 0.837 ± 0.041

**Q.** And the “PMP22 P1 relative level of expression” value (PMP22 [1]; 50 nM)?
**A.** 0.826 ± 0.225

**Q.** What about the “PMP22 P2 relative level of expression” value (PMP22 [1]; 50 nM) of the same compound?
**A.** 0.865 ± 0.141

**Q.** And the “PMP22 P1 relative level of expression” value (PMP22 [1]; 100 nM)?
**A.** 0.005 ± 0.0005

**Q.** What about the “PMP22 P2 relative level of expression” value (PMP22 [1]; 100 nM) of the same compound?
**A.** 0.020 ± 0.005

**Q.** What about the “PMP22 P1 relative level of expression” value (PMP22 [1]; 1 μM) of the same compound?
**A.** 0.003 ± 0.0007

**Q.** What about the “PMP22 P2 relative level of expression” value (PMP22 [1]; 1 μM) of the same compound?
**A.** 0.022 ± 0.0026

**Q.** And the “PMP22 P1 relative level of expression” value (PMP22 [1]; 10 μM)?
**A.** 0.007 ± 0.00003

**Q.** What about the “PMP22 P2 relative level of expression” value (PMP22 [1]; 10 μM) of the same compound?
**A.** 0.018 ± 0.0123

**Q.** CC(C)C[C@H](NC(=O)CNC(=O)c1cc(Cl)ccc1Cl)B1OC(=O)CC(CC(=O)O)(C(=O)O)O1 (stereo partly drawn) [MLN9708, 4-(carboxymethyl)-2-((R)-1-(2-(2,5-dichlorobenzamido)acetamido)-3-methylbutyl)-6-oxo-1,3,2-dioxaborinane-4-carboxylic acid] was tested. Which “Total PMP22 relative level” value (PMP22 [3]) did it give?
**A.** 1.00 ± 0.09

**Q.** How did the “PMP22 P1 relative level” value (PMP22 [2]; [5]) turn out when COC[C@H](NC(=O)c1cnc(C)s1)C(=O)N[C@@H](COC)C(=O)N[C@@H](Cc1ccccc1)C(=O)[C@@]1(C)CO1 [Oprozomib, O-methyl-N-[(2-methyl-5-thiazolyl)carbonyl]-L-seryl-O-methyl-N-[(1S)-2-[(2R)-2-methyl-2-oxiranyl]-2-oxo-1-(phenylmethyl)ethyl]-L-serinamide] was run?
**A.** 0.46 ± 0.15

**Q.** What about the “PMP22 P2 relative level” value (PMP22 [2]; [5]) of the same compound?
**A.** 3.1 ± 0.9

**Q.** What about the “Total PMP22 relative level” value (PMP22 [2]; [5]) of the same compound?
**A.** 0.62 ± 0.17

**Q.** What about the “PMP22 P1 relative level” value (PMP22 [2]; [6]) of the same compound?
**A.** 0.46 ± 0.1

**Q.** And the “PMP22 P2 relative level” value (PMP22 [2]; [6])?
**A.** 1.87 ± 0.77

**Q.** What about the “Total PMP22 relative level” value (PMP22 [2]; [6]) of the same compound?
**A.** 0.61 ± 0.07
